Peptide text beside a SMILES is read from it.
What was measured:
[1] = test system: rats; assay: rat-tail flick method, intracerebroventricular injection; assay type: in vivo; design: Mean Latency ± SEM Baseline / Mean Latency ± SEM Drug: unit not given here; settings: lateral ventricle; for Mean % Change ± SEM: change in latency (drug minus baseline); for Mean Latency ± SEM Baseline / Mean Latency ± SEM Drug: rat-tail flick; for Mean Latency ± SEM Baseline: baseline before drug
Method: In this test method, which is a standard test for analgesia, a light beam is focused on the tip of the rat's tail, and the pain threshold of the animal is measured by the latency of the rat to remove his tail from the noxious heat source. When tested by the rat-tail flick method by intracerebroventricular injection, according to the procedure of Belluzzi et al., Nature, 260, 625 (1976), the polypeptides of this invention produced the effects set forth in Table I.
*All drugs were dissolved in […]. of Ringer's solution and injected int
the lateral ventricle through permanently-indwelling cannulae.

[2] = test system: rats; settings: injection in the brain ventricle; cited from earlier work

Structure (SMILES) | Mean % Change ± SEM ([1]; dose 25 μg, 1 rat) [%] | Mean % Change ± SEM ([1]; dose 50 μg) [%] | Mean % Change ± SEM ([1]; dose 100 μg) [%] | Mean Latency ± SEM Baseline ([1]; dose group 25 μg, 1 rat) | Mean Latency ± SEM Baseline ([1]; dose group 50 μg) | Mean Latency ± SEM Baseline ([1]; dose group 100 μg) | Mean Latency ± SEM Drug ([1]; dose 25 μg, 1 rat) | Mean Latency ± SEM Drug ([1]; dose 50 μg) | Mean Latency ± SEM Drug ([1]; dose 100 μg) | analgesia [2] | Mean Latency ± SEM Baseline ([1]; dose group 10 μg)
CSCC[C@H](NC(=O)[C@H](Cc1ccccc1)NC(=O)CNC(=O)CNC(=O)[C@H](Cc1ccc(O)cc1)NC(=O)[C@@H](N)CCCNC(=N)N)C(=O)N[C@H](C(=O)N[C@@H](CO)C(=O)O)[C@@H](C)O [L-Arginyl-L-Tyrosyl-Glycyl-Glycyl-L-Phenylalanyl-L-Methionyl-L-Threonyl-L-Serine] (H-RYGGFMTS-OH) | 69.60 | 74.13 ± 15.56 | 55.13 ± 51.71 | 3.54 | 3.55 ± 0.13 | 3.43 ± 0.05 | 6.01 | 6.18 ± 0.55 | 5.29 ± 1.10 | – | –
CSCC[C@H](NC(=O)[C@H](Cc1ccccc1)NC(=O)CNC(=O)CNC(=O)[C@@H](N)Cc1ccc(O)cc1)C(=O)O [Methionine-Enkephalin, H-Tyr-Gly-Gly-Phe-Met-OH, reference compound] | – | – | – | – | – | 3.83 ± 0.14 | – | – | – | induce a profound analgesia that is fully reversible by naloxone | –
CN1CC[C@]23c4c5ccc(O)c4O[C@H]2[C@@H](O)C=C[C@H]3[C@H]1C5 [Morphine] | – | – | – | – | – | – | – | – | – | – | 3.96 ± 0.42

Reference: US4098781A, “Polypeptides with morphine-like activity” (American Home Products Corporation, priority 1977, dated 1978)
